Experimental data reported in patent publication US10167262B2, “Herbicidal substituted 3-arylpyrazoles” (FMC CORPORATION, priority 2014, dated 2019).

Tests used:
Assay type in all cases: in vivo
kochia (Kochia scoparia) = test: Test C postemergence greenhouse test, plant response rating 0-100
In short: (§1)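 Response is a visual 0–100 control rating taken 13 to 15 days post-treatment, with a dash marking no result. Plants ranged 2 to 18 cm when treated postemergence.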

wild oat (Avena fatua) = test: as above
In short: as §1

[1] = test system: chickweed (common chickweed, Stellaria media); test: as above
In short: as §1

[2] = test system: winter wheat (Triticum aestivum); test: Test C pre-/postemergence greenhouse test, plant response rating 0-100; conditions: Postemergence
In short: (§2)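 After treatment, pots stay in the greenhouse 13–15 days before each species is compared with untreated controls and given a 0–100 visual score. Preemergence seeds are in loam blended with sand; postemergence plants, 1–4 leaves, are in peat-based medium.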

[3] = test system: Italian ryegrass (Lolium multiflorum); test: as above; conditions: Postemergence
In short: as §2

corn (Zea mays) = test: as above; conditions: Postemergence
In short: as §2

[4] = test system: large (Lg) crabgrass (Digitaria sanguinalis); test: as above; conditions: Postemergence
In short: as §2

[5] = test system: yellow nutsedge (Cyperus esculentus); test: as above; conditions: Postemergence
In short: as §2

[6] = test system: pigweed (Amaranthus retroflexus); test: as above; conditions: Postemergence
In short: as §2

[7] = test system: giant foxtail (Setaria faberii); test: as above; conditions: Postemergence
In short: as §2

[8] = test system: ragweed (common ragweed, Ambrosia elatior); test: as above; conditions: Postemergence;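 note: 0 is no effect and 100 is complete control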
In short: as §2

soybean (Glycine max) = test: as above; conditions: Postemergence
In short: as §2

[9] = test system: blackgrass (Alopecurus myosuroides); test: as above; conditions: Postemergence; for Plant response rating, Blackgrass: scale 0 to 100;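 for all read-outs here: 0 is no effect and 100 is complete control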
In short: as §2

[10] = test system: galium (catchweed bedstraw, Galium aparine); test: as above; conditions: Postemergence
In short: as §2

## O=C(c1ccccc1)c1cn(S(=O)(=O)CCl)nc1-c1cc(Cl)cc(Cl)c1 [Compound 1]
Kochia (Kochia scoparia); 62 g ai/ha
  Plant response rating (0 to 100), Kochia: 80
Kochia (Kochia scoparia); 125 g ai/ha
  Plant response rating (0 to 100), Kochia: 85
Kochia (Kochia scoparia); 250 g ai/ha, scale 0 to 100
  Plant response rating, Kochia: 90
Wild oat (Avena fatua); 62 g ai/ha
  Plant response rating (0 to 100), Oat, Wild: 0
Wild oat (Avena fatua); 125 g ai/ha
  Plant response rating (0 to 100), Oat, Wild: 0
Wild oat (Avena fatua); 250 g ai/ha, scale 0 to 100
  Plant response rating, Oat, Wild: 0
[1]; 31 g ai/ha
  Plant response rating (0 to 100), Chickweed: 90
[1]; 62 g ai/ha
  Plant response rating (0 to 100), Chickweed: 100
[1]; 125 g ai/ha
  Plant response rating (0 to 100), Chickweed: 100
[1]; 250 g ai/ha, scale 0 to 100
  Plant response rating, Chickweed: 100
[2]; 62 g ai/ha
  Plant response rating (0 to 100), Wheat: 0
[2]; 125 g ai/ha
  Plant response rating (0 to 100), Wheat: 0
[2]; 250 g ai/ha, scale 0 to 100
  Plant response rating, Wheat: 0
[3]; 62 g ai/ha
  Plant response rating (0 to 100), Ryegrass, Italian: 0
[3]; 125 g ai/ha
  Plant response rating (0 to 100), Ryegrass, Italian: 0
[3]; 250 g ai/ha, scale 0 to 100
  Plant response rating, Ryegrass, Italian: 0
Corn (Zea mays); 31 g ai/ha
  Plant response rating (0 to 100), Corn: 0
Corn (Zea mays); 62 g ai/ha
  Plant response rating (0 to 100), Corn: 0
Corn (Zea mays); 125 g ai/ha
  Plant response rating (0 to 100), Corn: 0
Corn (Zea mays); 250 g ai/ha, scale 0 to 100
  Plant response rating, Corn: 0
[4]; 31 g ai/ha
  Plant response rating (0 to 100), Crabgrass, Large: 0
[4]; 62 g ai/ha
  Plant response rating (0 to 100), Crabgrass, Large: 0
[4]; 125 g ai/ha
  Plant response rating (0 to 100), Crabgrass, Large: 0
[4]; 250 g ai/ha, scale 0 to 100
  Plant response rating, Crabgrass, Large: 0
[5]; 62 g ai/ha
  Plant response rating (0 to 100), Nutsedge, Yellow: 0
[5]; 125 g ai/ha
  Plant response rating (0 to 100), Nutsedge, Yellow: 0
[5]; 250 g ai/ha, scale 0 to 100
  Plant response rating, Nutsedge, Yellow: 10
[6]; 62 g ai/ha
  Plant response rating (0 to 100), Pigweed: 98
[6]; 125 g ai/ha
  Plant response rating (0 to 100), Pigweed: 100
[6]; 250 g ai/ha, scale 0 to 100
  Plant response rating, Pigweed: 100
[7]; 31 g ai/ha
  Plant response rating (0 to 100), Foxtail, Giant: 0
[7]; 62 g ai/ha
  Plant response rating (0 to 100), Foxtail, Giant: 0
[7]; 125 g ai/ha
  Plant response rating (0 to 100), Foxtail, Giant: 0
[7]; 250 g ai/ha, scale 0 to 100
  Plant response rating, Foxtail, Giant: 0
[8]; 62 g ai/ha
  Plant response rating (0 to 100), Ragweed: 40
[8]; 125 g ai/ha
  Plant response rating (0 to 100), Ragweed: 50
[8]; 250 g ai/ha, scale 0 to 100
  Plant response rating, Ragweed: 65
Soybean (Glycine max); 62 g ai/ha
  Plant response rating (0 to 100), Soybean: 0
Soybean (Glycine max); 125 g ai/ha
  Plant response rating (0 to 100), Soybean: 0
Soybean (Glycine max); 250 g ai/ha, scale 0 to 100
  Plant response rating, Soybean: 0
[9]; 31 g ai/ha
  Plant response rating (0 to 100), Blackgrass: 0
[9]; 62 g ai/ha
  Plant response rating (0 to 100), Blackgrass: 0
[9]; 125 g ai/ha
  Plant response rating, Blackgrass: 0
[9]; 250 g ai/ha
  Plant response rating, Blackgrass: 0
[10]; 31 g ai/ha
  Plant response rating (0 to 100), Galium: 0
[10]; 62 g ai/ha
  Plant response rating (0 to 100), Galium: 0
[10]; 125 g ai/ha
  Plant response rating (0 to 100), Galium: 0
[10]; 250 g ai/ha, scale 0 to 100
  Plant response rating, Galium: 20
